Test results reported in ChEMBL document CHEMBL1134127, “A mechanism-based affinity-labeling agent for possible use in isolating N-acetylglucosaminidase” (Bioorg Med Chem Lett, 2001).

Test: Inhibitory activity against O-linked N-acetyl-glucosaminidase (O-GlcNAc'ase)
Set-up: species or system Rattus norvegicus

Ki: 50 µM
SMILES: CC(=O)NC1[C@@H](O)[C@@H](O)C(CO)O[C@H]1SC1CC(=O)N(c2ccc(C(=O)c3ccccc3)cc2)C1=O (stereo partly specified)
